Source: patent US8263656B2 (Hoffmann-La Roche Inc., priority 2008, dated 2012)
pIC50: −log10 of the molar value.

What follows are compounds tested against T1, human CRTH2 (Homo sapiens, UniProt Q9Y5Y4) (assay: Human CRTH2 Receptor Binding Assay (whole cell, [3H]ramatroban competition)). Settings: CHO-K1 cells expressing human CRTH2 and G-alpha16; 20 nM [3H]ramatroban; 1 hour, room temperature.
T1 construct: expressed in transfected cells
T1 sequence (Q9Y5Y4 1-395): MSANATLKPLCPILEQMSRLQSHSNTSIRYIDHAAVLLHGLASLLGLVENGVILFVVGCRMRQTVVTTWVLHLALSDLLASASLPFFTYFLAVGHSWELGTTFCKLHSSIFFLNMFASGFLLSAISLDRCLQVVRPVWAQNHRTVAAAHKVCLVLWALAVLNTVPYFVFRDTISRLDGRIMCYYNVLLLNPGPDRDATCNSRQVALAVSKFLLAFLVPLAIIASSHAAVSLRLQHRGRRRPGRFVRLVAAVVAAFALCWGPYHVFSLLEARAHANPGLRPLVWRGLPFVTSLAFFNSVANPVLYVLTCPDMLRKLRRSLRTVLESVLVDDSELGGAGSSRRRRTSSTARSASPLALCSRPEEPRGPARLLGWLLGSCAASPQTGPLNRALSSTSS
Text: A whole cell receptor binding assay using [^3H]ramatroban as the competing radioactive ligand was employed to evaluate the compound binding activity to human CRTH2. The radioactive ligand [^3H]ramatroban was synthesized according to Sugimoto et. al. (Eur. J. Pharmacol. 524, 30-37, 2005) to a specific activity of 42 Ci/mmol.
A cell line stably expressing human CRTH2 was established by transfecting CHO-K1 cells with two mammalian expression vectors that harbored human CRTH2 and G-alpha16 cDNAs, respectively, using FuGene® 6 transfection reagent (from Roche). Stable clones expressing CRTH2 were selected by staining each clone with BM16 (BD Pharmingen™ from BD Biosciences, a division of Becton, Dickinson and Company), which is a rat monoclonal antibody to human CRTH2. The cells were maintained as monolayer cultures in Ham's F-12 medium containing 10% fetal bovine serum, 100 units/mL penicillin, […] streptomycin, 2 mM glutamine, 0.5 mg/mL G418 (geneticin) for CRTH2, and 0.2 mg/mL hygromycin-B (for G-alpha 16). For whole cell receptor binding assay, the monolayer cells were rinsed once with PBS (phosphate buffered saline), dissociated using diammonium ethylenediaminetetraacetate (Versene™ EDTA from the Dow Chemical Company), and suspended in PBS containing 10 mM MgCl2 and 0.06% BSA (bovine serum albumin) at 1.5×10^6 cells/mL.
The binding reactions (0.2 mL) were performed in 96-well plates at room temperature in PBS containing 1.5×10^5 cells, 10 mM MgCl2, 0.06% BSA, 20 nM [^3H]ramatroban, and test compound at various concentrations. After 1 hour of binding reactions, the cells were harvested on GF™/B filter microplates (microtiter plates with embedded glass fiber from PerkinElmer, Inc.) and washed 5 times with PBS using a Filtermate™ Harvester (a cell harvester that harvests and washes cells from microplates from PerkinElmer, Inc.). The radioactivities bound to the cells were determined using a microplate scintillation counter (TopCount® NXT, from PerkinElmer, Inc.) after adding 50 μL of Microscint™ 20 scintillation fluid (from PerkinElmer, Inc.) to each well of the filter plates. The radioactivity from non-specific binding was determined by replacing compound with 10 μM of 15(R)-15-methyl PGD2 (from Cayman Chemical Company) in the reaction mixtures. The radioactivity bound to the cells in the absence of compound (total binding) was determined by replacing compound with 0.25% of DMSO (dimethyl sulfoxide) in the reaction mixture. Specific binding data were obtained by subtracting the radioactivity of non-specific binding from each binding data.
The IC50 value is defined as the concentration of the tested compound that is required for 50% inhibition of total specific binding. In order to calculate the IC50 value, the percent inhibition data were determined for 7 concentrations for each compound. The percent inhibition for a compound at each concentration was calculated according to the following formula, [1-(specific binding in the presence of compound)/(total specific binding)]×100. The IC50 value was then obtained by fitting the percent inhibition data to a sigmoidal dose-response (4 parameter logistic) model in the XLfit® software Excel add-in program [from ID Business Solutions Ltd., model 205, where F(x)=(A+(B−A)/(1+((C/x)^D)))].

Row | Structure (SMILES) | pIC50
1 | O=C(O)COc1c(F)c(Cl)cc2c1CCC[C@H]2NS(=O)(=O)c1cc(C(F)(F)F)cc(C(F)(F)F)c1 [Example 1-1, [(R)-5-(3,5-Bis-trifluoromethyl-benzenesulfonylamino)-3-chloro-2-fluoro-5,6,7,8-tetrahydro-naphthalen-1-yloxy]-acetic acid] | 8.62
2 | Cc1ccc2c(c1OCC(=O)O)CCCC2NS(=O)(=O)c1cc(C(F)(F)F)cc(C(F)(F)F)c1 (centres unmarked) [Example 1-3, [5-(3,5-Bis-trifluoromethyl-benzenesulfonyl-amino)-2-methyl-5,6,7,8-tetrahydro-naphthalen-1-yloxy]-acetic acid] | 6.83
3 | CCc1ccc2c(c1OCC(=O)O)CCCC2NS(=O)(=O)c1cc(C(F)(F)F)cc(C(F)(F)F)c1 (centres unmarked) [Example 1-4, [5-(3,5-Bis-trifluoromethyl-benzenesulfonyl-amino)-2-ethyl-5,6,7,8-tetrahydro-naphthalen-1-yloxy]-acetic acid] | 7.19
4 | Cc1c(Cl)cc2c(c1OCC(=O)O)CCCC2NS(=O)(=O)c1cc(C(F)(F)F)cc(C(F)(F)F)c1 (centres unmarked) [Example 1-5, [5-(3,5-Bis-trifluoromethyl-benzenesulfonyl-amino)-3-chloro-2-methyl-5,6,7,8-tetrahydro-naphthalen-1-yloxy]-acetic acid] | 7.55
5 | O=C(O)COc1cc(Cl)cc2c1CCCC2NS(=O)(=O)c1cc(C(F)(F)F)cc(C(F)(F)F)c1 (centres unmarked) [Example 1-6] | 8.24
6 | O=C(O)COc1c(Cl)ccc2c1CCCC2NS(=O)(=O)c1cc(C(F)(F)F)cc(C(F)(F)F)c1 (centres unmarked) [Example 1-7, [5-(3,5-Bis-trifluoromethyl-benzenesulfonyl-amino)-2-chloro-5,6,7,8-tetrahydro-naphthalen-1-yloxy]-acetic acid] | 6.53
7 | O=C(O)COc1cc(Cl)cc2c1CCC[C@H]2NS(=O)(=O)c1cc(C(F)(F)F)cc(C(F)(F)F)c1 [Example 1-8] | 8.46
8 | O=C(O)COc1c(F)c(Cl)cc2c1CCCC2NS(=O)(=O)c1cc(C(F)(F)F)cc(C(F)(F)F)c1 (centres unmarked) [Example 1-9, [5-(3,5-Bis-trifluoromethyl-benzenesulfonyl-amino)-3-chloro-2-fluoro-5,6,7,8-tetrahydro-naphthalen-1-yloxy]-acetic acid] | 8.24
9 | O=C(O)COc1c(F)c(Cl)cc2c1CCCC2NS(=O)(=O)c1cc(Cl)ccc1Cl (centres unmarked) [Example 1-10] | 7.94
10 | O=C(O)COc1cc(Cl)cc2c1CCCC2NS(=O)(=O)c1ccc(Cl)cc1Cl (centres unmarked) [Example 1-11, [3-Chloro-5-(2,4-dichloro-benzenesulfonyl-amino)-5,6,7,8-tetrahydro-naphthalen-1-yloxy]-acetic acid] | 8.46
11 | O=C(O)COc1c(Cl)c(Cl)cc2c1CCCC2NS(=O)(=O)c1cc(C(F)(F)F)cc(C(F)(F)F)c1 (centres unmarked) [Example 1-12, [5-(3,5-Bis-trifluoromethyl-benzenesulfonyl-amino)-2,3-dichloro-5,6,7,8-tetrahydro-naphthalen-1-yloxy]-acetic acid] | 7.58
12 | O=C(O)COc1cc(Cl)cc2c1CCCC2NS(=O)(=O)c1cc(Cl)ccc1Cl (centres unmarked) [Example 1-13, [3-Chloro-5-(2,5-dichloro-benzenesulfonyl-amino)-5,6,7,8-tetrahydro-naphthalen-1-yloxy]-acetic acid] | 8.15
13 | O=C(O)COc1c(F)c(Cl)cc2c1CCCC2NS(=O)(=O)c1ccc(Cl)cc1Cl (centres unmarked) [Example 1-14] | 8.11
14 | O=C(O)COc1c(F)c(Cl)cc2c1CCCC2NS(=O)(=O)c1cc(Br)cc(C(F)(F)F)c1 (centres unmarked) [Example 1-15, [5-(3-Bromo-5-trifluoromethyl-benzenesulfonyl-amino)-3-chloro-2-fluoro-5,6,7,8-tetrahydro-naphthalen-1-yloxy]-acetic acid] | 8.10
15 | O=C(O)COc1cc(Cl)cc2c1CCCC2NS(=O)(=O)c1cc(F)cc(C(F)(F)F)c1 (centres unmarked) [Example 1-16, [3-Chloro-5-(3-fluoro-5-trifluoromethyl-benzenesulfonyl-amino)-5,6,7,8-tetrahydro-naphthalen-1-yloxy]-acetic acid] | 8.42
16 | O=C(O)COc1cc(Cl)cc2c1CCCC2NS(=O)(=O)c1cc(Br)cc(C(F)(F)F)c1 (centres unmarked) [Example 1-17, [5-(3-Bromo-5-trifluoromethyl-benzenesulfonyl-amino)-3-chloro-5,6,7,8-tetrahydro-naphthalen-1-yloxy]-acetic acid] | 8.44
17 | O=C(O)COc1cc(Cl)cc2c1CCC[C@H]2NS(=O)(=O)c1ccc(Cl)cc1Cl [Example 1-18, [(R)-3-Chloro-5-(2,4-dichloro-benzenesulfonyl-amino)-5,6,7,8-tetrahydro-naphthalen-1-yloxy]-acetic acid] | 8.55
18 | O=C(O)COc1cc(Br)cc2c1CCCC2NS(=O)(=O)c1cc(C(F)(F)F)cc(C(F)(F)F)c1 (centres unmarked) [Example 1-19, [5-(3,5-Bis-trifluoromethyl-benzenesulfonyl-amino)-3-bromo-5,6,7,8-tetrahydro-naphthalen-1-yloxy]-acetic acid] | 8.54
19 | O=C(O)COc1cc(Br)cc2c1CCC[C@H]2NS(=O)(=O)c1cc(C(F)(F)F)cc(C(F)(F)F)c1 [Example 1-20, [(R)-5-(3,5-Bis-trifluoromethyl-benzenesulfonyl-amino)-3-bromo-5,6,7,8-tetrahydro-naphthalen-1-yloxy]-acetic acid] | 8.60
20 | O=C(O)COc1c(F)c(Cl)cc2c1CCCC2NS(=O)(=O)c1cc(F)cc(C(F)(F)F)c1 (centres unmarked) [Example 1-21, [3-Chloro-2-fluoro-5-(3-fluoro-5-trifluoromethyl-benzenesulfonyl-amino)-5,6,7,8-tetrahydro-naphthalen-1-yloxy]-acetic acid] | 8.55
21 | O=C(O)COc1c(F)ccc2c1CCCC2NS(=O)(=O)c1cc(C(F)(F)F)cc(C(F)(F)F)c1 (centres unmarked) [Example 1-22, [5-(3,5-Bis-trifluoromethyl-benzenesulfonyl-amino)-2-fluoro-5,6,7,8-tetrahydro-naphthalen-1-yloxy]-acetic acid] | 7.47
22 | COc1cc(OCC(=O)O)c2c(c1)[C@H](NS(=O)(=O)c1cc(C(F)(F)F)cc(C(F)(F)F)c1)CCC2 [Example 1-23, [(R)-5-(3,5-Bis-trifluoromethyl-benzenesulfonyl-amino)-3-methoxy-5,6,7,8-tetrahydro-naphthalen-1-yloxy]-acetic acid] | 8.44
23 | O=C(O)COc1cc(-c2ccccc2)cc2c1CCCC2NS(=O)(=O)c1cc(C(F)(F)F)cc(C(F)(F)F)c1 (centres unmarked) [Example 1-24, [5-(3,5-Bis-trifluoromethyl-benzenesulfonyl-amino)-3-phenyl-5,6,7,8-tetrahydro-naphthalen-1-yloxy]-acetic acid] | 8.43
24 | O=C(O)COc1c(Cl)ccc2c1CCC[C@H]2NS(=O)(=O)c1cc(C(F)(F)F)cc(C(F)(F)F)c1 [Example 1-25, [(R)-5-(3,5-Bis-trifluoromethyl-benzenesulfonyl-amino)-2-chloro-5,6,7,8-tetrahydro-naphthalen-1-yloxy]-acetic acid] | 7.02
25 | O=C(O)COc1c(F)c(F)cc2c1CCCC2NS(=O)(=O)c1cc(F)cc(C(F)(F)F)c1 (centres unmarked) [Example 1-26, [2,3-Difluoro-5-(3-fluoro-5-trifluoromethyl-benzenesulfonyl-amino)-5,6,7,8-tetrahydro-naphthalen-1-yloxy]-acetic acid] | 7.37
26 | O=C(O)COc1cc(F)cc2c1CCCC2NS(=O)(=O)c1cc(F)cc(C(F)(F)F)c1 (centres unmarked) [Example 1-27, [3-Fluoro-5-(3-fluoro-5-trifluoromethyl-benzenesulfonyl-amino)-5,6,7,8-tetrahydro-naphthalen-1-yloxy]-acetic acid] | 7.40
